Source: PMC8342319, “Predicting blood-to-plasma concentration ratios of drugs from chemical structures and volumes of distribution in humans” (Molecular Diversity, 2021)
Where two headings read alike, the source gives them in different places.

Key:
[1] = cited from earlier work; for Rb_Human (blood-to-plasma concentration ratio) / Rb_Human: human; for Rb_Human: blood-to-plasma concentration ratio, median if multiple values reported, Reference of Table S1
plasma protein = settings: cited from earlier work
[2] = human, cited from earlier work
[3] = human
[4] = cited from earlier work
[5] = mean if multiple values reported, ref numbers in Table S2 (supplement reference list)
[6] = free fraction in human plasma, median if multiple values reported, Reference of Table S1
[7] = human, intravenous, median if multiple values reported, Reference of Table S1
[8] = intravenous, median if multiple values reported, Reference of Table S1

CN(C)C(=O)Oc1cccc([N+](C)(C)C)c1 [Neostigmine, reference compound]
Rb_Human (blood-to-plasma concentration ratio) [1, 5]: 1.07

CCOC(=O)C1=C(C)NC(C)=C(C(=O)OC)C1c1cccc([N+](=O)[O-])c1 (centres unmarked) [Nitrendipine, reference compound]
Rb_Human (blood-to-plasma concentration ratio) [1, 5]: 1.46

CNC(=C[N+](=O)[O-])NCCSCc1csc(CN(C)C)n1 [Nizatidine, reference compound]
Rb_Human (blood-to-plasma concentration ratio) [1, 5]: 0.87

COc1cc2nc(N3CCN(C(=O)c4ccco4)CC3)nc(N)c2cc1OC [Prazosin]
fp_Human (plasma protein): 0.054 | Rb_Human [1]: 0.70

COc1cc(NC(C)CCCN)c2ncccc2c1 (centres unmarked) [Primaquine, reference compound]
Rb_Human (blood-to-plasma concentration ratio) [1, 5]: 0.81

CC(CN1c2ccccc2Sc2ccccc21)N(C)C (centres unmarked) [Promethazine]
fp_Human (plasma protein; [6]): 0.125 | Rb_Human [1]: 1.50

CC(C)c1cccc(C(C)C)c1O [Propofol]
in vivo Vd_(L/kg)_Human ([2]; in vivo, iv): 4.700 L/kg | in vivo MRT_(hr)_Human [3]: 2.176 h | in vivo CL_(L/hr/kg)_Human ([4]; in vivo, iv): 2.160 L/h/kg | fp_Human (plasma protein): 0.020

O=P(O)(O)C(O)(Cc1cccnc1)P(=O)(O)O [Risedronic acid]
in vivo CL_(L/hr/kg)_Human [4, 7]: 0.090 L/h/kg | fp_Human (plasma protein; [6]): 0.760 | Rb_Human [1]: 1.07

CCN(C)C(=O)Oc1cccc([C@H](C)N(C)C)c1 [Rivastigmine]
in vivo Vd_(L/kg)_Human ([2]; in vivo, iv): 1.300 L/kg | in vivo MRT_(hr)_Human [3]: 1.806 h | in vivo CL_(L/hr/kg)_Human [4, 7]: 0.720 L/h/kg | fp_Human (plasma protein): 0.600

CN(CCOc1ccc(CC2SC(=O)NC2=O)cc1)c1ccccn1 (centres unmarked) [Rosiglitazone]
in vivo CL_(L/hr/kg)_Human [4, 7]: 0.039 L/h/kg | fp_Human (plasma protein; [6]): 0.002 | Rb_Human [1]: 0.57

CNS(=O)(=O)Cc1ccc2[nH]cc(CCN(C)C)c2c1 [Sumatriptan]
in vivo Vd_(L/kg)_Human [2, 8]: 1.700 L/kg | fp_Human (plasma protein; [6]): 0.830 | Rb_Human [1]: 1.03

Nc1c2c(nc3ccccc13)CCCC2 [Tacrine, reference compound]
Rb_Human (blood-to-plasma concentration ratio) ([1]; plasma): 1.60

COc1cc2nc(N3CCN(C(=O)C4CCCO4)CC3)nc(N)c2cc1OC (centres unmarked) [Terazosin]
in vivo CL_(L/hr/kg)_Human [4, 7]: 0.066 L/h/kg | fp_Human (plasma protein; [6]): 0.080 | Rb_Human [1]: 0.84

CCCCCc1cc(O)c2c(c1)OC(C)(C)[C@@H]1CCC(C)=C[C@@H]21 [Tetrahydrocannabinol]
in vivo Vd_(L/kg)_Human ([2]; in vivo, iv): 8.900 L/kg | in vivo MRT_(hr)_Human [3]: 46.354 h | in vivo CL_(L/hr/kg)_Human [4, 7]: 0.192 L/h/kg | fp_Human (plasma protein): 0.085

CCCC(C)C1(CC)C(=O)NC(=S)NC1=O (centres unmarked) [Thiopental]
in vivo Vd_(L/kg)_Human ([2]; in vivo, iv): 1.200 L/kg | in vivo MRT_(hr)_Human [3]: 2.439 h | in vivo CL_(L/hr/kg)_Human ([4]; in vivo, iv): 0.363 L/h/kg | fp_Human (plasma protein): 0.140

COc1cc2c(cc1O)CCN[C@]21CS[C@@H]2c3c(OC(C)=O)c(C)c4c(c3[C@H](COC1=O)N1[C@@H]2[C@H]2c3c(cc(C)c(OC)c3O)C[C@@H]([C@@H]1O)N2C)OCO4 [Trabectedin, reference compound]
Rb_Human (blood-to-plasma concentration ratio) [1, 5]: 0.89

COc1cccc(C2(O)CCCCC2CN(C)C)c1 (centres unmarked) [Tramadol]
in vivo Vd_(L/kg)_Human ([2]; in vivo, iv): 2.800 L/kg | in vivo MRT_(hr)_Human [3]: 7.179 h | in vivo CL_(L/hr/kg)_Human [4, 7]: 0.390 L/h/kg | fp_Human (plasma protein): 0.800

CCCCC(=O)N(Cc1ccc(-c2ccccc2-c2nnn[nH]2)cc1)[C@H](C(=O)O)C(C)C [Valsartan]
in vivo Vd_(L/kg)_Human [2, 8]: 0.220 L/kg | in vivo MRT_(hr)_Human [3]: 7.483 h | in vivo CL_(L/hr/kg)_Human [4, 7]: 0.029 L/h/kg | fp_Human (plasma protein): 0.040

CC(=O)O[C@H]1C[C@@H]2CC[C@@H]3[C@H](CC[C@@]4(C)[C@H]3C[C@H]([N+]3(C)CCCCC3)[C@@H]4OC(C)=O)[C@@]2(C)C[C@@H]1N1CCCCC1 [Vecuronium Bromide]
in vivo Vd_(L/kg)_Human ([2]; in vivo, iv): 0.300 L/kg | in vivo MRT_(hr)_Human [3]: 1.111 h | in vivo CL_(L/hr/kg)_Human [4, 7]: 0.327 L/h/kg | fp_Human (plasma protein): 0.250

Cc1ccc(-c2nc3ccc(C)cn3c2CC(=O)N(C)C)cc1 [Zolpidem]
in vivo Vd_(L/kg)_Human ([2]; in vivo, iv): 0.540 L/kg | in vivo MRT_(hr)_Human [3]: 2.093 h | in vivo CL_(L/hr/kg)_Human [4, 7]: 0.258 L/h/kg | fp_Human (plasma protein): 0.060

C[C@@H](O)[C@H]1C(=O)N2C(C(=O)O)=C(S[C@@H]3CN[C@H](CNS(N)(=O)=O)C3)[C@H](C)[C@H]12 [doripenem, reference compound]
fp_Human (free fraction in plasma) (plasma protein; human, collected value, median if multiple values were reported, ref: Table S1): 0.920 | Rb value ([1]; almost no distribution in blood cells): 0.5

Tetracycline
in vivo CL_(L/hr/kg)_Human [4, 7]: 0.090 L/h/kg | fp_Human (plasma protein; [6]): 0.780 | Rb_Human [1]: 1.70
